From patent US20230295152A1 (SENDA BIOSCIENCES, INC., priority 2019, published 2023)
Read-outs that look alike come from different tables or passages of the source.

What was measured:
Assay type in all cases: in vitro ADME
[1] = Hepatocyte Stability Assay, mouse; as to all read-outs here: tested at 1 µM; conditions: for Mouse hepatocyte clearance: mouse hepatocytes; for Suspension mou. heps Clint (% Qh): suspension mouse hepatocytes
Description: Example 7: Hepatocyte Stability Assay
• Preparation of working solutions: 10 mM stock solutions of test compound and positive control were prepared in DMSO. In separate conical tubes, the 10 mM solution of test compound and the positive control were diluted to 100 μM by combining 198 μL of 50% acetonitrile/50% water and 2 μL of 10 mM stock.
Data Analysis: All calculations were carried out using Microsoft Excel. Peak areas were determined from extracted ion chromatograms. In vitro half-life (t1/2) of parent compound was determined by regression analysis of the percent parent disappearance vs. time curve.
The in vitro half-life (in vitro t1/2) was determined from the slope value:
Conversion of the in vitro t1/2 (in min) into the in vitro intrinsic clearance (in vitro CLint, in μL/min/1×10^6 cells) was done using the following equation (mean of duplicate determinations):
V=incubation volume(0.2 mL);
N=number of hepatocytes per well(0.1×10^6 cells).

[2] = Hepatocyte Stability Assay, human; conditions: for CLint scaled: human, plated hepatocytes; for CLint scaled / Human hepatocyte clearance Plated hepatocyte Alliance assay: plated hepatocyte; for Plated heps (% Qh) / Plated heps (% Qh), All: plated human hepatocytes; for Plated heps (% Qh), All: value in brackets marked "All"
[3] = biological target: T1, CYP2D6 (Homo sapiens, UniProt P10635); assay: CYP Inhibition Assay in human liver microsomes, CYP2D6; conditions: pH 7.4
T1 construct: from tissue; host or cells: human liver microsomes (HLM)
T1 sequence (P10635 whole entry): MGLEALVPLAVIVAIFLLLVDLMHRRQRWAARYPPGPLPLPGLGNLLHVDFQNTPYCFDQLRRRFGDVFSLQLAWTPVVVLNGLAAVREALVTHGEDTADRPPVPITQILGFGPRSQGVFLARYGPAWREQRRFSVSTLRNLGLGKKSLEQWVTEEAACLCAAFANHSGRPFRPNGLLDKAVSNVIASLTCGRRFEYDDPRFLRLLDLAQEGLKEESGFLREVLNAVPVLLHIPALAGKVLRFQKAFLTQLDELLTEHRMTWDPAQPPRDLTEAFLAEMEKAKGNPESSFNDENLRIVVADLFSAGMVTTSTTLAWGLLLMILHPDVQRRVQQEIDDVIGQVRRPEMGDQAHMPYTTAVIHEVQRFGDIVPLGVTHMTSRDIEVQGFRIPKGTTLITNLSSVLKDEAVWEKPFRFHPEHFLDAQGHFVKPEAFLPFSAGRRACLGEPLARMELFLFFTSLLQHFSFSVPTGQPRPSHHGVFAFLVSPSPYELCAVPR
Description: Stock solutions of test compounds were prepared in DMSO at the concentrations of 10 mM. Stock solution was diluted to 2 mM with acetonitrile. The final concentration of test compounds was 10 μM. For the stock solution preparation, if the positive control could not be well dissolved in the mixture of DMSO and acetonitrile (1:4) at the highest concentration, another mixture of acetonitrile and DMSO, the mixture of acetonitrile and H2O or DMSO will be used to dissolve the compound.
The substrate solutions are stored in a −20° C. freezer and warmed to room temperature prior to use.
Preparation of Phosphate Buffer (100 mmol/L, pH 7.4): To prepare the Solution A, 7.098 g of disodium hydrogen phosphate were weighed out and added into 500 mL of pure water, then sonicated to dissolve the content. To prepare the Solution B, 3.400 g of potassium dihydrogen phosphate were weighed out and added into 250 mL of pure water, then sonicated to dissolve the content. Solution A was placed on a stirrer and slowly Solution B was added into Solution A until the pH reached 7.4. Preparation of 10 mmol/L NADPH Solution: NADPH was dissolved at 8.334 mg/mL in phosphate buffer; the solution was freshly prepared prior to use.
The master solution was prepared according to Table 45. The incubation was carried out in 96 deep well plates. The following volumes were dispensed into each well of the incubation plate: 179 μL of the substrate and HLM mixture in phosphate buffer, 1 μL of the compound working solution, or vehicle (mixture of DMSO and acetonitrile (1:4)). The incubation plate was placed into the water bath and pre-warmed at 37° C. for 15 minutes before the reactions was started by the addition of 20 μL of 10 mmol/L NADPH solution in phosphate buffer. After the addition of NADPH, the incubation plate was incubated at 37° C. for corresponding time. The assay was performed in duplicate.
The reaction was quenched by the addition of 1.5 volume (300 μL) of cold acetonitrile containing 3% formic acid and internal standards (200 nM Labetalol, 200 nM Alprazolam and 200 nM tolbutamide). The plate was centrifuged at 3,220 g for 40 minutes. 100 μL of the supernatant was transferred to a new plate. The supernatant was diluted with 100 μL pure water. The samples were mixed well and analyzed using UPLC/MS/MS.
Data Analysis: The automatic peak integration areas are checked for all the samples. The Analyte Peak Area and Internal Standard Peak Area are exported into excel spreadsheet. The inhibition of each P450 enzyme in human liver microsomes is measured as the percentage decrease in the activity of marker metabolite formation compared to non-inhibited controls (=100% activity).
The percentage of remaining activity was calculated as follows:
Area Ratio=Peak Area Analyte/Peak Area Internal Standard Remaining Activity (%)=Area Ratio test compound/Area Ratio vehicle*100% Inhibition %=100-Remaining Activity (%)

[4] = Plasma Protein Binding with Ultracentrifugation Method, human; conditions: for fraction unbound at 30 min, 1 μM: human plasma, read-out: Human plasma protein binding (% bound); for fraction unbound at 5.5 h, 1 μM: human, plasma, read-out: Plasma Protein Binding PPB (h) % (converted)
Description: The frozen plasma (stored at −80° C.) was thawed in a 37° C. water bath, followed by centrifugation at 3,220 g for 10 minutes to remove clots. The supernatant was removed into a new tube as the spun plasma. The spun plasma was pre-warmed in a 37° C. water bath for 10 minutes. The stock solutions of test compounds were diluted to 200 μM in DMSO, and then spiked into the plasma. Duplicate samples were prepared. The final concentration of compound was 1.0 μM. The final concentration of organic solvent was 0.5%. Warfarin was used as positive control in the assay. 1.0 mL of the spiked plasma was transferred to a new balance ultracentrifuge tube. Samples were incubated at 37° C., 5% CO2 for 30 minutes. After incubation, the balance ultracentrifuge tubes were centrifuged at 600,000 g for 5.5 hours at 37° C. After centrifugation, 50 μL solution was removed from the center of the ultracentrifuge tubes as the post-ultracentrifugation samples, followed by the addition of 50 μL blank plasma and 400 μL quench solution (acetonitrile containing internal standards (IS, 100 nM Alprazolam, 500 nM Labetalol and 2 μM Ketoprofen)) to precipitate protein and release compounds. Samples were vortexed for 2 minutes, followed by centrifugation at 20,000 g for 15 minutes at room temperature. The supernatant was diluted with ultrapure water and then used for LC-MS/MS analysis. Stability samples was prepared by transferring 50 μL of the spiked plasma to 0.6 mL tubes and incubated at 37° C., 5% CO2 for 0.5 and 6 hours. After incubation, 50 μL PBS (100 mM, pH7.4) and 400 μL quench solution were added to the stability samples. And then stability samples were treated the same way as the post-ultracentrifugation samples. The supernatant was diluted with ultrapure water and then used for LC-MS/MS analysis. 0.5 hour time point samples were also used as no-spun controls. Time 0 samples were prepared by transferring 50 μL spiked plasma to 0.6 mL tubes containing 50 μL PBS, followed by the addition of 400 μL quench solution to precipitate protein and release compound. And then these samples were treated the same way as the post-ultracentrifugation samples. The supernatant was diluted with ultrapure water and then used for LC-MS/MS analysis.
Data Analysis: All calculations were carried out using Microsoft Excel. The concentrations of test compound in plasma samples and post-ultracentrifugation plasma was determined from peak areas. The percentages of test compound bound was calculated as follows: […]
“+++” indicates a % bound value less than 50, “++” indicates a % bound value between 50 and 75, and “+” indicates a % bound value above 75.

[5] = Pharmaron assay, read-out: Human hepatocyte clearance Plated hepatocyte Pharmaron assay

| Compound | inhibition at 10 µM [3] | fraction unbound at 30 min, 1 μM [4] | CLint scaled ([2]; Alliance assay, read-out: Human hepatocyte clearance Plated hepatocyte Alliance assay) | Mouse hepatocyte clearance [1] | CLint scaled [2, 5] | Suspension mou. heps Clint (% Qh) [1] | fraction unbound at 5.5 h, 1 μM [4] | Human hepatocyte clearance Plated hepatocyte Alliance assay ([2]; Alliance assay) | Plated heps (% Qh) [2] | Plated heps (% Qh), All [2] |
| --- | --- | --- | --- | --- | --- | --- | --- | --- | --- | --- |
| C[C@H](n1cnc2c(-c3cnn(C)c3)nc(-c3ccc(Cl)cc3)cc2c1=O)C(C)(C)O [Compound 30] | 11.2% | – | – | ++ (“++” indicates a CLint between 20 and 50 mL/min/Kg) | < 20 mL/min/kg | – | – | – | – | – |
| C[C@@H](CO)n1cnc2c(-c3cccnc3)nc(-c3ccc(C(F)(F)F)cn3)cc2c1=O [Compound 46, (S)-3-(1-hydroxypropan-2-yl)-8-(pyridin-3-yl)-6-(5-(trifluoromethyl)pyridin-2-yl)pyrido[3,4-d]pyrimidin-4(3H)-one] | 7.43% | < 0.25 | – | ++ (“++” indicates a CLint between 20 and 50 mL/min/Kg) | < 20 mL/min/kg | < 33 % Qh | 0.108 | +++ (“+++” indicates a CLint value less than 20 mL/min/Kg) | < 1 % Qh | 1.0 % Qh |
| CC(C)(O)Cn1cnc2c(-c3cccnc3)nc(-c3ccc(C(F)(F)F)nc3)cc2c1=O [Compound 9] | 7.19% | < 0.25 | – | – | < 20 mL/min/kg | < 33 % Qh | 0.109 | +++ (“+++” indicates a CLint value less than 20 mL/min/Kg) | 2.1 % Qh | 0.6 % Qh |

Now from value to compound, other results behind:

| inhibition at 10 µM [3] | fraction unbound at 30 min, 1 μM [4] | CLint scaled ([2]; Alliance assay, read-out: Human hepatocyte clearance Plated hepatocyte Alliance assay) | Compound | Mouse hepatocyte clearance [1] | CLint scaled [2, 5] | Suspension mou. heps Clint (% Qh) [1] | fraction unbound at 5.5 h, 1 μM [4] | Human hepatocyte clearance Plated hepatocyte Alliance assay ([2]; Alliance assay) | Plated heps (% Qh) [2] | Plated heps (% Qh), All [2] |
| --- | --- | --- | --- | --- | --- | --- | --- | --- | --- | --- |
| 12.1% | < 0.25 | – | CC(C)(O)Cn1cnc2c(-c3cccnc3)nc(-c3ccc(Cl)cc3)cc2c1=O [Compound 18] | + (“+” indicates an CLint above 50 mL/min/Kg) | < 20 mL/min/kg | – | – | – | – | – |
| 2.73% | < 0.25 | – | CC(C)(O)Cn1cnc2c(-c3cccnc3)nc(-c3ccc(C(F)(F)F)cn3)cc2c1=O [Compound 105] | ++ (“++” indicates a CLint between 20 and 50 mL/min/Kg) | < 20 mL/min/kg | – | – | – | – | – |
| 15.6% | < 0.25 | – | CC(C)(O)Cn1cnc2c(-c3cccnc3)nc(-c3ccc(C(F)(F)F)cc3)cc2c1=O [Compound 16] | ++ (“++” indicates a CLint between 20 and 50 mL/min/Kg) | < 20 mL/min/kg | – | – | – | – | – |
| 8.45% | < 0.25 | < 20 mL/min/kg | C[C@@H](CO)n1cnc2c(-c3cccnc3)nc(-c3ccc(C(F)(F)F)nc3)cc2c1=O [Compound 12] | ++ (“++” indicates a CLint between 20 and 50 mL/min/Kg) | – | – | – | – | – | – |
